Laboratory results reported in ChEMBL document CHEMBL4602617, “Discovery and optimization of heteroaryl piperazines as potent and selective PI3Kδ inhibitors” (Bioorg Med Chem Lett, 2020).

Experiments:
Homo sapiens [1] = species on record: Homo sapiens; assay: Selectivity index, ratio IC50 for inhibition of recombinant human full-length N-terminal His6-tagged p110beta/untagged full-length p85alpha expressed in baculovirus infected Sf21 cells to ratio IC50 for inhibition of recombinant human full-length N-terminal GST-tagged p110delta/untagged full-length p85alpha expressed in baculovirus infected Sf21 cells
[2] = Protein binding in rat plasma at 0.5 mg/kg, iv or 1 mg/kg, po; format: ADME, organism-based; settings: read-out: PPB (converted)
[3] = target: Ribosomal protein S6 kinase alpha-3 (Homo sapiens, UniProt P51812); assay: Inhibition of recombinant full length human His-tagged RSK2 expressed in baculovirus expression system using serine/threonine-6 peptide as substrate incubated for 60 mins in presence of ATP by Z'-LYTE assay
Ribosomal protein S6 kinase alpha-3, sequence (P51812 whole entry): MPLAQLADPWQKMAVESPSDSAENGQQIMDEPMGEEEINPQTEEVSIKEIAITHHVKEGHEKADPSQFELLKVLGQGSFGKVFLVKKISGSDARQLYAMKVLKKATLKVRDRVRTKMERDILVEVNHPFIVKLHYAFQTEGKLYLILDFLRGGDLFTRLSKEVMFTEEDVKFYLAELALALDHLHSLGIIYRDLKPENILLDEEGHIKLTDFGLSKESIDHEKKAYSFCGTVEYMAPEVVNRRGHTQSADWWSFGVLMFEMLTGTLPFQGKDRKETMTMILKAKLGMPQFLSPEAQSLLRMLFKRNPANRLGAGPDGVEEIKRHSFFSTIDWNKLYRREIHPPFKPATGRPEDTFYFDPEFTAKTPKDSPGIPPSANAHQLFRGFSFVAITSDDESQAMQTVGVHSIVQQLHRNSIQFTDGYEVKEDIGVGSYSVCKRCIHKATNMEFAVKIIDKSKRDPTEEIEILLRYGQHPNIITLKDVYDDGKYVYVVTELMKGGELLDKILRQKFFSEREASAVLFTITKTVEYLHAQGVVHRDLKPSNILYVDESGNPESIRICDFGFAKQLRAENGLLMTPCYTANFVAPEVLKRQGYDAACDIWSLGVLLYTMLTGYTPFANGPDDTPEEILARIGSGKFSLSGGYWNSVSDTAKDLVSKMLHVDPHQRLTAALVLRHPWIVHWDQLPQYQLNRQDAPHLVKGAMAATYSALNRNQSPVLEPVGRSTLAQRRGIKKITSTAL

Sphingosine kinase 1 = Sphingosine kinase 1 (Homo sapiens, UniProt Q9NYA1); assay: Inhibition of recombinant full length human GST-tagged SPHK1 expressed in baculovirus expression system using sphingosine lipid as substrate incubated for 60 mins in presence of ATP by Adapta assay
[4] = target: PI3-kinase p110-delta/p85-alpha (Homo sapiens, UniProt O00329); assay: Inhibition of His-tagged recombinant human PI3K p110delta/p85alpha expressed in baculovirus expression system using PIP2:PS lipid as substrate in presence of ATP after 1 hr by Adapta assay
[5] = target: Acetylcholine receptor subunit alpha (Homo sapiens) (UniProt P02708); assay: Displacement of [125I]-alpha-Bungarotoxin from full length nAChR alpha1 receptor in human RD cell membranes at 10 uM measured after 120 mins by radiometric scintillation analysis relative to control
Homo sapiens [6] = species on record: Homo sapiens; assay: Inhibition of human nicotinic acetylcholine receptor at 10 uM relative to control
[7] = target: Cannabinoid receptor 2 (Homo sapiens) (UniProt P34972); assay: Displacement of [3H]WIN55212-2 from recombinant full length human recombinant CB2 receptor expressed in CHOK1 cells at 10 uM measured after 90 mins by radiometric scintillation analysis relative to control; format: cell-based; settings: CHO-K1
[8] = target: Beta-1 adrenergic receptor (Homo sapiens) (UniProt P08588); assay: Displacement of [125I]cyanopindolol from full-length recombinant human beta1 adrenergic receptor expressed in CHOK1 cells at 10 uM measured after 120 mins by scintillation counting method relative to control; format: cell-based; settings: CHO-K1
[9] = target: Serine/threonine-protein kinase Chk1 (Homo sapiens, UniProt O14757); assay: Inhibition of recombinant human full-length His-tagged CHEK1 expressed in baculovirus expression system using FRET-labeled Ser/Thr 19 peptide as substrate measured after 1 hr in presence of ATP by Z'-lyte assay
[10] = target: Casein kinase II subunit alpha' (Homo sapiens, UniProt P19784); assay: Inhibition of recombinant human full-length GST-tagged CSNK2A2 expressed in baculovirus expression system using FRET-labeled Ser/Thr 11 peptide as substrate measured after 1 hr in presence of ATP by Z'-lyte assay
Casein kinase II subunit alpha', sequence (P19784 whole entry): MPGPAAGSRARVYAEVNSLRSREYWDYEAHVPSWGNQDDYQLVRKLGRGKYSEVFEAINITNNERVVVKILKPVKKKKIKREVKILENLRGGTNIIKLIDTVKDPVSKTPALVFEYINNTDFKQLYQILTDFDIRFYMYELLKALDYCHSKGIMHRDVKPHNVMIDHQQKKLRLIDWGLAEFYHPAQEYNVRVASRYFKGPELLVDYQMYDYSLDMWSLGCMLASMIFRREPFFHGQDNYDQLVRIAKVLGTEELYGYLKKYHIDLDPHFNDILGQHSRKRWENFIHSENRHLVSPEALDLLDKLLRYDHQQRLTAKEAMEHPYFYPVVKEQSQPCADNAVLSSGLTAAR

[11] = target: Insulin-like growth factor 1 receptor (Homo sapiens, UniProt P08069); assay: Inhibition of recombinant human His-tagged IGF1R expressed in baculovirus expression system using tyrosine 1 peptide as substrate incubated for 60 mins in presence of ATP by Z'-LYTE assay
[12] = target: Insulin receptor-related protein (Homo sapiens, UniProt P14616); assay: Inhibition of recombinant human GST-tagged INSRR cytoplasmic domain expressed in baculovirus expression system using tyrosine-1 peptide as substrate incubated for 60 mins in presence of ATP by Z'-LYTE assay
[13] = target: Leucine-rich repeat serine/threonine-protein kinase 2 (Homo sapiens, UniProt Q5S007, G2019S); assay: Inhibition of recombinant human GST-tagged LRRK2 G2019S mutant catalytic domain (970 to 2527 residues) expressed in baculovirus expression system using LRRKtide as substrate measured after 1 hr in presence of ATP by ADAPTA assay
[14] = target: Dual specificity mitogen-activated protein kinase kinase 1 (Homo sapiens, UniProt Q02750); assay: Inhibition of recombinant full length human His-tagged MEK1 expressed in baculovirus expression system using serine/threonine-3 peptide as substrate incubated for 60 mins in presence of ATP by Z'-LYTE assay
[15] = target: Mitogen-activated protein kinase 9 (Homo sapiens, UniProt P45984); assay: Inhibition of recombinant full length human His-tagged JNK2 expressed in baculovirus expression system using serine/threonine-4 peptide as substrate incubated for 60 mins in presence of ATP by Z'-LYTE assay
Mitogen-activated protein kinase 9, sequence (P45984 whole entry): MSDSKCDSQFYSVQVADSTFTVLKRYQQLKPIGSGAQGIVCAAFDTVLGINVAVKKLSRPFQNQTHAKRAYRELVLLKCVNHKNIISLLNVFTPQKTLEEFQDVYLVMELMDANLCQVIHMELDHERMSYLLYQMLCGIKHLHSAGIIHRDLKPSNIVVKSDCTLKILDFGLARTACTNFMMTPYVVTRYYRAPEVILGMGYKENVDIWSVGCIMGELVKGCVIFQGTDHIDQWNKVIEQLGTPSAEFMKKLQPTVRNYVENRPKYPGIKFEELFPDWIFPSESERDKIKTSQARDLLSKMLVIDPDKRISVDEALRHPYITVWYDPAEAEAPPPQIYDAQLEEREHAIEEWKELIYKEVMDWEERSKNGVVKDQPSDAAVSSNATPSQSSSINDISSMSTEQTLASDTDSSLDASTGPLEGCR

[16] = target: Serine/threonine-protein kinase MARK1 (Homo sapiens, UniProt Q9P0L2); assay: Inhibition of recombinant full length human GST-tagged MARK1 expressed in baculovirus expression system using serine/threonine-21 peptide as substrate incubated for 60 mins in presence of ATP by Z'-LYTE assay
[17] = target: MAP/microtubule affinity-regulating kinase 3 (Homo sapiens, UniProt P27448); assay: Inhibition of recombinant full length human GST-tagged MARK3 expressed in baculovirus expression system using serine/threonine-25 peptide as substrate incubated for 60 mins in presence of ATP by Z'-LYTE assay
MAP/microtubule affinity-regulating kinase 3, sequence (P27448 whole entry, the tested form may be a part): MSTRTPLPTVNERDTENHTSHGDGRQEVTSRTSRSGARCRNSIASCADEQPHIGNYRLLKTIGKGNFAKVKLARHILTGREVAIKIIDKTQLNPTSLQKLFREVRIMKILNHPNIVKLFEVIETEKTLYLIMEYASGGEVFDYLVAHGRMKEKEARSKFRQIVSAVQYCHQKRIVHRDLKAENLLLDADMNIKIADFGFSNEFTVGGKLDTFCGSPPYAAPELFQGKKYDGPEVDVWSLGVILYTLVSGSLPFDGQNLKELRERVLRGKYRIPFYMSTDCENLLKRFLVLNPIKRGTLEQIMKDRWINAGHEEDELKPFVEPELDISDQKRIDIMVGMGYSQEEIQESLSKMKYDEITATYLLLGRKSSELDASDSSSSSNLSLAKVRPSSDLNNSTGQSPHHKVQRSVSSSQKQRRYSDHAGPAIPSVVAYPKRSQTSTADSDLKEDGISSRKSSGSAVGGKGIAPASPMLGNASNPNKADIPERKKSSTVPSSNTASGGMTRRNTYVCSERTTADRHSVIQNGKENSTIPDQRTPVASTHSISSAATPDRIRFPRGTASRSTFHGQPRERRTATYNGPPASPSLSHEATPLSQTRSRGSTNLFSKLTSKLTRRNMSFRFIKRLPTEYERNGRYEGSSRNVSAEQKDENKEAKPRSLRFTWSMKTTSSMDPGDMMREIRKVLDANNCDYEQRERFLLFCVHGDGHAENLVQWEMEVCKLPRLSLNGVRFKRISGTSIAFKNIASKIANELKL

[18] = target: Muscle, skeletal receptor tyrosine-protein kinase (Homo sapiens, UniProt O15146); assay: Inhibition of recombinant human GST-tagged MUSK cytoplasmic domain (519 to 869 residues) expressed in baculovirus expression system using tyrosine-4 peptide as substrate incubated for 60 mins in presence of ATP by Z'-LYTE assay
Muscle, skeletal receptor tyrosine-protein kinase, sequence (O15146 whole entry, the tested form may be a part): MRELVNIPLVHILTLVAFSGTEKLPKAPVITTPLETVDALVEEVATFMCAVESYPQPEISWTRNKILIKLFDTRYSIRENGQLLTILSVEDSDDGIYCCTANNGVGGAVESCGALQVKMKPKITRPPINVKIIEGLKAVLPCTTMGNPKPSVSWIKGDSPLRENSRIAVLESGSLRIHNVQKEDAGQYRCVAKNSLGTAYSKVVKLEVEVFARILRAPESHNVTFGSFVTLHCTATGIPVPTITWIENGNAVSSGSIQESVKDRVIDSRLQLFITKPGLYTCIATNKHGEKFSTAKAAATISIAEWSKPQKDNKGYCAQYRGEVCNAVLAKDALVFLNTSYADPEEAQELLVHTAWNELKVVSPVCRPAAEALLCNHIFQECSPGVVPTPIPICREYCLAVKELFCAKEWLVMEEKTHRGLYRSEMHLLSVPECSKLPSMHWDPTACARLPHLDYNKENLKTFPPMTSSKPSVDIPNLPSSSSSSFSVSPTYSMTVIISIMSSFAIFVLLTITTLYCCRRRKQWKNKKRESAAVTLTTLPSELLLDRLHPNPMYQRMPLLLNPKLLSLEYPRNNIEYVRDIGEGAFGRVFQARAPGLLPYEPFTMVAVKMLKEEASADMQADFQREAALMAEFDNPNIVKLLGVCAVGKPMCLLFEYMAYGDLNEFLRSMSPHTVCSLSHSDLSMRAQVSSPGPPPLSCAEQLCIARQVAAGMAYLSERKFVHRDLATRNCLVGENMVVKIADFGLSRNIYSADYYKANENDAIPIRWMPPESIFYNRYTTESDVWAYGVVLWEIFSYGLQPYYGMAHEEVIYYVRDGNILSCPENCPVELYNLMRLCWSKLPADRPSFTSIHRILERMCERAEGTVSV

[19] = target: Serine/threonine-protein kinase Nek6 (Homo sapiens, UniProt Q9HC98); assay: Inhibition of recombinant full length human GST-tagged NEK6 expressed in insect expression system using serine/threonine-22 peptide as substrate incubated for 60 mins in presence of ATP by Z'-LYTE assay
Serine/threonine-protein kinase Nek6, sequence (Q9HC98 whole entry): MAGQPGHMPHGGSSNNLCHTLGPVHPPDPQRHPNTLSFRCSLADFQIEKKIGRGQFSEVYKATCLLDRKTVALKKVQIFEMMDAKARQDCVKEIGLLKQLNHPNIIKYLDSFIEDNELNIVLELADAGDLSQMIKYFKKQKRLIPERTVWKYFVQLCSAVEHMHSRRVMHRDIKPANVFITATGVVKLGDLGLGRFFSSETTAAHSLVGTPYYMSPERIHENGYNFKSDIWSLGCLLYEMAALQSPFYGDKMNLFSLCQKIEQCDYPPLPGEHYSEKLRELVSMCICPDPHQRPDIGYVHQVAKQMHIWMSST

[20] = target: Protein kinase C delta type (Homo sapiens, UniProt Q05655); assay: Inhibition of recombinant full length human GST-tagged PRKCD expressed in insect expression system using serine/threonine-7 peptide as substrate incubated for 60 mins in presence of ATP by Z'-LYTE assay
Protein kinase C delta type, sequence (Q05655 whole entry): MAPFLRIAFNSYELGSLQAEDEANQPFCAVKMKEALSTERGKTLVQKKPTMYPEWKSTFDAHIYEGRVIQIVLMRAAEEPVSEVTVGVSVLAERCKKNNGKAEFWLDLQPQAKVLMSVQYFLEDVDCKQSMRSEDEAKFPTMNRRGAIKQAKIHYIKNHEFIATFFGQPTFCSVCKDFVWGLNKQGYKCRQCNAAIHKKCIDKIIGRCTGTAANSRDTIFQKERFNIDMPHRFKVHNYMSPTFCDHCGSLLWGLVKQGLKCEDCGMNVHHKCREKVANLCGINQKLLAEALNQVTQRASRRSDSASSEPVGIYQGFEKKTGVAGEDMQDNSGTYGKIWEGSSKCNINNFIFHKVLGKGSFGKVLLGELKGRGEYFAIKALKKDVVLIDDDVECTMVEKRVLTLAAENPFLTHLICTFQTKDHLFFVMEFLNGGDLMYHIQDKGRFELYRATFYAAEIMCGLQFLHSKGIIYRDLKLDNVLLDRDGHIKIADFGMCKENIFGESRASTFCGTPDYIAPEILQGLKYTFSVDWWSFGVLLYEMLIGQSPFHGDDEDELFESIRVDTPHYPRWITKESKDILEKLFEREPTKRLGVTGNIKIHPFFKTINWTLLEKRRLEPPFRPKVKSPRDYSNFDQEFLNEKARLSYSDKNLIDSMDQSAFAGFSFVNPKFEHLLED

[21] = target: Serine/threonine-protein kinase D3 (Homo sapiens, UniProt O94806); assay: Inhibition of recombinant full length human GST-tagged PKD3 expressed in baculovirus expression system using serine/threonine-17 peptide as substrate incubated for 60 mins in presence of ATP by Z'-LYTE assay
Serine/threonine-protein kinase D3, sequence (O94806 whole entry): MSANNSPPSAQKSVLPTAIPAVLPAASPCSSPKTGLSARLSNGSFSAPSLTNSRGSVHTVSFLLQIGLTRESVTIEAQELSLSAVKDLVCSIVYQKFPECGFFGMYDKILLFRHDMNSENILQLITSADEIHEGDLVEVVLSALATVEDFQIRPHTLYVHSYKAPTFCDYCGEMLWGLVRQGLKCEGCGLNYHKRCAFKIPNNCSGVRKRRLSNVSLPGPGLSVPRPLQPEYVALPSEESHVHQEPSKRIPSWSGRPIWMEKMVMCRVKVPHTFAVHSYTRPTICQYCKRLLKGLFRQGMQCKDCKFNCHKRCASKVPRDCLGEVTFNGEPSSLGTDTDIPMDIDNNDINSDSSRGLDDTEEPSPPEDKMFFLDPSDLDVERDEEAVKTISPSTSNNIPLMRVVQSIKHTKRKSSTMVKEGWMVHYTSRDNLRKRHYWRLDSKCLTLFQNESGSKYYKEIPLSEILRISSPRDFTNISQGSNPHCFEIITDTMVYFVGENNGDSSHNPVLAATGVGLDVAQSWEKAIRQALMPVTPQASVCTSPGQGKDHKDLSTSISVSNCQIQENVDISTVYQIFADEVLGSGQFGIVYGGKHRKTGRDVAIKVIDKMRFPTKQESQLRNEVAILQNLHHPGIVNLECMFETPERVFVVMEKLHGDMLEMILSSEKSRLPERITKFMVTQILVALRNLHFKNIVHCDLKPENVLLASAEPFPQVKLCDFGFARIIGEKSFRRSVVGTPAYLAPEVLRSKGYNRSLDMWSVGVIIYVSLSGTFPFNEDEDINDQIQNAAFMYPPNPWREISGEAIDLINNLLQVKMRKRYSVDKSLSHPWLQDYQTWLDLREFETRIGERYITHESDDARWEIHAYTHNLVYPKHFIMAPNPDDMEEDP

[22] = target: Serine/threonine-protein kinase D2 (Homo sapiens, UniProt Q9BZL6); assay: Inhibition of recombinant full length human GST-tagged PRKD2 expressed in baculovirus expression system using serine/threonine-01 peptide as substrate incubated for 60 mins in presence of ATP by Z'-LYTE assay
[23] = target: Rho-associated protein kinase 2 (Homo sapiens, UniProt O75116); assay: Inhibition of recombinant human GST-tagged ROCK2 catalytic domain expressed in baculovirus expression system using serine/threonine-13 peptide as substrate incubated for 60 mins in presence of ATP by Z'-LYTE assay
[24] = target: Ribosomal protein S6 kinase alpha-1 (Homo sapiens, UniProt Q15418); assay: Inhibition of recombinant full length human His-tagged RPS6KA1 expressed in baculovirus expression system using […] peptide as substrate incubated for 60 mins in presence of ATP by Z'-LYTE assay

## C[C@@H]1C[C@H]1C(=O)N1CCN(c2cnc(C#N)c(-c3cnn(C)c3)n2)C[C@H]1C
Homo sapiens [1]
  Ratio IC50: 2990
[2]
  fraction unbound: 0.152
[3]
  IC50: 29.1 µM
Sphingosine kinase 1
  IC50: 13.8 µM
[4]
  IC50: 0.884 µM
[5]
  inhibition: 5%
Homo sapiens [6]
  inhibition: 10%
[7]
  inhibition: 2%
[8]
  inhibition: 4%
[9]
  IC50: > 100 µM
[10]
  IC50: > 100 µM
[11]
  IC50: > 100 µM
[12]
  IC50: > 100 µM
[13]
  IC50: > 100 µM
[14]
  IC50: > 100 µM
[15]
  IC50: > 100 µM
[16]
  IC50: > 100 µM
[17]
  IC50: > 100 µM
[18]
  IC50: > 100 µM
[19]
  IC50: > 100 µM
[20]
  IC50: > 100 µM
[21]
  IC50: > 100 µM
[22]
  IC50: > 100 µM
[23]
  IC50: > 100 µM
[24]
  IC50: > 100 µM
